# In patent US20240408088A1, “PYRAZOLE DERIVATIVE, AND PREPARATION METHOD THEREFOR AND USE THEREOF IN MEDICINE” (Abbisko Therapeutics Co., Ltd., priority 2021, published 2024):
# Tested on: HCT 116 MTAP wild-type cells
# Assay: Human colon cancer HCT116 cell proliferation inhibition test (MTAP wild-type cells, CellTiter-Glo, 6 days)
# Assay type: cell-based
# Conditions: HCT-116, 144 h
# Experimental: (§1) • 1. HCT 116 MTAP knockout and MTAP wild-type cells were plated in 96-well flat bottom 5 plates, and cultured overnight with McCoy's 5A medium containing […]+1% penicillin-streptomycin at 37° C. and 5% CO2. • 2. On the next day, the compound was dissolved with DMSO, diluted with DMSO and medium successively and transferred to the cell plate. The final concentration of the compound was 10 μM, the compound was diluted 4 times, with 9 concentration gradients, and DMSO control was added. • 3. Cells that have not been treated with the compound were removed. CellTiter-Glo Luminescent Cell Viability Assay (Promega) was used to detect cell viability, the operation was performed with reference to the package insert of the kit, and then the cell plate was placed on EnVision Multilabel Reader to detect the cold light signal. • 4. Meanwhile, the cell plate treated with the compound was cultured at 37° C. and 5% CO2 for 6 consecutive days. • 5. Then, CellTiter-Glo was also used to detect cell viability. • 6. Finally, the four-parameter dose-response curve module of GraphPad Prism v 9.2.0 software was used to plot the dose-response curve and calculate the IC50 for proliferation inhibition (unit: nM).
row,IC50 [nM],SMILES
1,2490,"COC1CCN(c2cc(OC3CC3)c(C#N)c(-c3c(-c4ccc5c(=O)[nH]nc(CN)c5c4)cnn3C)c2F)C1 (centres unmarked) [Example 26, 2-(4-(4-(aminomethyl)-1-oxo-1,2-dihydrophthalazin-6-yl)-1-methyl-1H-pyrazol-5-yl)-6-cyclopropoxy-3-fluoro-4-(3-methoxypyrrolidin-1-yl)benzonitrile]"
2,1150,"Cn1ncc(-c2ccc3c(=O)[nH]nc(CN)c3c2)c1-c1c(F)c(Cl)cc(N2CC3(C2)CC3(F)F)c1C#N [Example 29, 2-(4-(4-(aminomethyl)-1-oxo-1,2-dihydrophthalazin-6-yl)-1-methyl-1H-pyrazol-5-yl)-4-chloro-6-(1,1-difluoro-5-azaspiro[2.3]hexan-5-yl)-3-fluorobenzonitrile]"
3,3660,"COC1CN(c2cc(OC3CC3)c(C#N)c(-c3c(-c4ccc5c(=O)[nH]nc(CN)c5c4)cnn3C)c2F)C1 [Example 23, 2-(4-(4-(aminomethyl)-1-oxo-1,2-dihydrophthalazin-6-yl)-1-methyl-1H-pyrazol-5-yl)-6-cyclopropoxy-3-fluoro-4-(3-methoxyazetidin-1-yl)benzonitrile]"
4,2660,"Cn1ncc(-c2ccc3c(=O)[nH]nc(CN)c3c2)c1-c1c(F)c(Cl)cc(N2CC(C(F)F)C2)c1C#N [Example 30, 2-(4-(4-(aminomethyl)-1-oxo-1,2-dihydrophthalazin-6-yl)-1-methyl-1H-pyrazol-5-yl)-4-chloro-6-(3-(difluoromethyl)azetidin-1-yl)-3-fluorobenzonitrile]"

# Tested on: HCT 116 MTAP knockout cells
# Assay: Human colon cancer HCT116 cell proliferation inhibition test (MTAP knockout cells, CellTiter-Glo, 6 days)
# Assay type: cell-based
# Conditions: not given
# Experimental: as §1
row,IC50 [nM],SMILES
1,188,"Cn1ncc(-c2cc(C#N)c3c(=O)[nH]nc(CN)c3c2)c1-c1c(F)cc2ccccc2c1C#N (atropisomer, axis not shown; (P)) [Example 4, (P)-1-(aminomethyl)-7-(5-(1-cyano-3-fluoronaphthalen-2-yl)-1-methyl-1H-pyrazol-4-yl)-4-oxo-3,4-dihydrophthalazine-5-carbonitrile]"
2,16,"Cn1ncc(-c2cc(C#N)c3c(=O)[nH]nc(CN)c3c2)c1-c1c(F)cc2ccccc2c1C#N (atropisomer, axis not shown; (M)) [Example 5, (M)-1-(aminomethyl)-7-(5-(1-cyano-3-fluoronaphthalen-2-yl)-1-methyl-1H-pyrazol-4-yl)-4-oxo-3,4-dihydrophthalazine-5-carbonitrile]"

# Same assay, conditions: Homo sapiens, HCT-116, 144 h
row,IC50 [nM],SMILES
1,93,"Cn1ncc(-c2ccc3c(=O)[nH]nc(CN)c3c2)c1-c1c(F)c(Cl)cc(N2CC3(C2)CC(F)(F)C3)c1C#N [Example 31, 2-(4-(4-(aminomethyl)-1-oxo-1,2-dihydrophthalazin-6-yl)-1-methyl-1H-pyrazol-5-yl)-4-chloro-6-(6,6-difluoro-2-azaspiro[3.3]heptan-2-yl)-3-fluorobenzonitrile]"
2,34,"COC1CCN(c2cc(OC3CC3)c(C#N)c(-c3c(-c4ccc5c(=O)[nH]nc(CN)c5c4)cnn3C)c2F)C1 (centres unmarked) [Example 26, 2-(4-(4-(aminomethyl)-1-oxo-1,2-dihydrophthalazin-6-yl)-1-methyl-1H-pyrazol-5-yl)-6-cyclopropoxy-3-fluoro-4-(3-methoxypyrrolidin-1-yl)benzonitrile]"
3,1970,"Cn1ncc(-c2cnc3c(=O)[nH]nc(CN)c3c2)c1-c1c(F)cc2ccccc2c1C#N [Example 12, 2-(4-(5-(aminomethyl)-8-oxo-7,8-dihydropyrido[2,3-d]pyridazin-3-yl)-1-methyl-1H-pyrazol-5-yl)-3-fluoro-1-naphthalenenitrile]"
4,57,"Cn1ncc(-c2ccc3c(=O)[nH]nc(CN)c3c2)c1-c1c(F)c(Cl)cc(N2CCC3(CC2)CC3(F)F)c1C#N [Example 33, 2-(4-(4-(aminomethyl)-1-oxo-1,2-dihydrophthalazin-6-yl)-1-methyl-1H-pyrazol-5-yl)-4-chloro-6-(1,1-difluoro-6-azaspiro[2.5]octan-6-yl)-3-fluorobenzonitrile]"
5,57,"Cn1ncc(-c2ccc3c(=O)[nH]nc(CN)c3c2)c1-c1c(F)c(Cl)cc(N2CCC2)c1C#N [Example 32, 2-(4-(4-(aminomethyl)-1-oxo-1,2-dihydrophthalazin-6-yl)-1-methyl-1H-pyrazol-5-yl)-6-(azetidin-1-yl)-4-chloro-3-fluorobenzonitrile]"
6,20,"Cn1ncc(-c2ccc3c(=O)[nH]nc(CN)c3c2)c1-c1c(F)c(Cl)cc(N2CC3(C2)CC3(F)F)c1C#N [Example 29, 2-(4-(4-(aminomethyl)-1-oxo-1,2-dihydrophthalazin-6-yl)-1-methyl-1H-pyrazol-5-yl)-4-chloro-6-(1,1-difluoro-5-azaspiro[2.3]hexan-5-yl)-3-fluorobenzonitrile]"
7,27,"C#Cc1cc(-c2cnn(C)c2-c2c(F)c(Cl)cc(OC3CC3)c2C#N)cc2c(CN)n[nH]c(=O)c12 [Example 7, 2-(4-(4-(aminomethyl)-8-ethynyl-1-oxo-1,2-dihydrophthalazin-6-yl)-1-methyl-1H-pyrazol-5-yl)-4-chloro-6-cyclopropoxy-3-fluorobenzonitrile]"
8,120,"COC1CN(c2cc(OC3CC3)c(C#N)c(-c3c(-c4ccc5c(=O)[nH]nc(CN)c5c4)cnn3C)c2F)C1 [Example 23, 2-(4-(4-(aminomethyl)-1-oxo-1,2-dihydrophthalazin-6-yl)-1-methyl-1H-pyrazol-5-yl)-6-cyclopropoxy-3-fluoro-4-(3-methoxyazetidin-1-yl)benzonitrile]"
9,44,"Cn1ncc(-c2ccc3c(=O)[nH]nc(CN)c3c2)c1-c1c(F)c(Cl)cc(N2CC(C(F)F)C2)c1C#N [Example 30, 2-(4-(4-(aminomethyl)-1-oxo-1,2-dihydrophthalazin-6-yl)-1-methyl-1H-pyrazol-5-yl)-4-chloro-6-(3-(difluoromethyl)azetidin-1-yl)-3-fluorobenzonitrile]"
10,567,"Cn1ncc(-c2ccc3c(=O)[nH]nc(CN)c3c2)c1-c1c(F)c(N2CCC(O)C2)cc(OC2CC2)c1C#N (centres unmarked) [Example 25, 2-(4-(4-(aminomethyl)-1-oxo-1,2-dihydrophthalazin-6-yl)-1-methyl-1H-pyrazol-5-yl)-6-cyclopropoxy-3-fluoro-4-(3-hydroxypyrrolidin-1-yl)benzonitrile]"
11,61,"CC1CCCN1c1cc(Cl)c(F)c(-c2c(-c3ccc4c(=O)[nH]nc(CN)c4c3)cnn2C)c1C#N (centres unmarked) [Example 20, 2-(4-(4-(aminomethyl)-1-oxo-1,2-dihydrophthalazin-6-yl)-1-methyl-1H-pyrazol-5-yl)-4-chloro-3-fluoro-6-(2-methylpyrrolidin-1-yl)benzonitrile]"
12,84,"Cn1ncc(-c2ccc3c(=O)[nH]nc(CN)c3c2)c1-c1c(F)c(Cl)cc(N2CC(F)C2)c1C#N [Example 34, 2-(4-(4-(aminomethyl)-1-oxo-1,2-dihydrophthalazin-6-yl)-1-methyl-1H-pyrazol-5-yl)-4-chloro-3-fluoro-6-(3-fluoroazetidin-1-yl)benzonitrile]"
13,229,"CN(C)C1CN(c2cc(OC3CC3)c(C#N)c(-c3c(-c4ccc5c(=O)[nH]nc(CN)c5c4)cnn3C)c2F)C1 [Example 24, 2-(4-(4-(aminomethyl)-1-oxo-1,2-dihydrophthalazin-6-yl)-1-methyl-1H-pyrazol-5-yl)-6-cyclopropoxy-4-(3-(dimethylamino)azetidin-1-yl)-3-fluorobenzonitrile]"
14,100,"Cn1ncc(-c2ccc3c(=O)[nH]nc(CN)c3c2)c1-c1c(F)c(N2CCOCC2)cc(OC2CC2)c1C#N [Example 15, 2-(4-(4-(aminomethyl)-1-oxo-1,2-dihydrophthalazin-6-yl)-1-methyl-1H-pyrazol-5-yl)-6-cyclopropoxy-3-fluoro-4-morpholinobenzonitrile]"
15,122,"Cn1ncc(-c2cc(-c3ccccc3)c3c(=O)[nH]nc(CN)c3c2)c1-c1c(F)c(Cl)cc(OC2CC2)c1C#N [Example 13, 2-(4-(4-(aminomethyl)-1-oxo-8-phenyl-1,2-dihydrophthalazin-6-yl)-1-methyl-1H-pyrazol-5-yl)-4-chloro-6-cyclopropoxy-3-fluorobenzonitrile]"
16,184,"Cn1ncc(-c2cc(C3CC3)c3c(=O)[nH]nc(CN)c3c2)c1-c1c(F)c(Cl)cc(N2CCCC2)c1C#N [Example 11, 2-(4-(4-(aminomethyl)-8-cyclopropyl-1-oxo-1,2-dihydrophthalazin-6-yl)-1-methyl-1H-pyrazol-5-yl)-4-chloro-3-fluoro-6-(pyrrolidin-1-yl)benzonitrile]"
17,12,"C#Cc1cc(-c2cnn(C)c2-c2c(F)c(Cl)cc(N3CCCC3)c2C#N)cc2c(CN)n[nH]c(=O)c12 [Example 10, 2-(4-(4-(aminomethyl)-8-ethynyl-1-oxo-1,2-dihydrophthalazin-6-yl)-1-methyl-1H-pyrazol-5-yl)-4-chloro-3-fluoro-6-(pyrrolidin-1-yl)benzonitrile]"
18,116,"Cn1ncc(-c2ccc3c(=O)[nH]nc(CN)c3c2)c1-c1c(F)c(Cl)cc(N2CCCCC2)c1C#N [Example 22, 2-(4-(4-(aminomethyl)-1-oxo-1,2-dihydrophthalazin-6-yl)-1-methyl-1H-pyrazol-5-yl)-4-chloro-3-fluoro-6-(piperidin-1-yl)benzonitrile]"
19,113,"Cn1ncc(-c2ccc3c(=O)[nH]nc(CN)c3c2)c1-c1c(F)c(N2CCC2)cc(OC2CC2)c1C#N [Example 17, 2-(4-(4-(aminomethyl)-1-oxo-1,2-dihydrophthalazin-6-yl)-1-methyl-1H-pyrazol-5-yl)-4-(azetidin-1-yl)-6-cyclopropoxy-3-fluorobenzonitrile]"
20,922,"Cn1ncc(-c2ccc3c(=O)[nH]nc(CN)c3c2)c1-c1c(F)c(Cl)cc(N2CC(C)(O)C2)c1C#N [Example 35, 2-(4-(4-(aminomethyl)-1-oxo-1,2-dihydrophthalazin-6-yl)-1-methyl-1H-pyrazol-5-yl)-4-chloro-3-fluoro-6-(3-hydroxy-3-methylazetidin-1-yl)benzonitrile]"
21,262,"CN(C)C1CCN(c2cc(OC3CC3)c(C#N)c(-c3c(-c4ccc5c(=O)[nH]nc(CN)c5c4)cnn3C)c2F)C1 (centres unmarked) [Example 27, 2-(4-(4-(aminomethyl)-1-oxo-1,2-dihydrophthalazin-6-yl)-1-methyl-1H-pyrazol-5-yl)-6-cyclopropoxy-4-(3-(dimethylamino)pyrrolidin-1-yl)-3-fluorobenzonitrile]"

row,SMILES,IC50 [nM]
1,"Cn1ncc(-c2ccc3c(=O)[nH]nc(CN)c3c2)c1-c1c(F)c(Cl)cc(OC2CC(F)(F)C2)c1C#N [Example 37, 2-(4-(4-(aminomethyl)-1-oxo-1,2-dihydrophthalazin-6-yl)-1-methyl-1H-pyrazol-5-yl)-4-chloro-6-(3,3-difluorocyclobutoxy)-3-fluorobenzonitrile]",133
2,"Cn1ncc(-c2ccc3c(=O)[nH]nc(CN)c3c2)c1-c1c(F)c(Cl)cc(N2C3CCC2CC3)c1C#N [Example 21, 2-(4-(4-(aminomethyl)-1-oxo-1,2-dihydrophthalazin-6-yl)-1-methyl-1H-pyrazol-5-yl)-6-(7-azabicyclo[2.2.1]heptan-7-yl)-4-chloro-3-fluorobenzonitrile]",161
